In patent EP4692071A1, “PHOTOCHROMIC COMPOUND, NAPHTHOL DERIVATIVE, CURABLE COMPOSITION, OPTICAL ARTICLE, LENS, AND EYEGLASS” (TOKUYAMA CORPORATION, priority 2023, dated 2024):
One block for each molecule: values may come before it.

Legend:
Type in all cases: physicochemical
[1] = Maximum absorption wavelength (λmax) after color development, spectrophotometer MCPD3000; settings: for Maximum absorption wavelength: photochromic laminate prepared by coating method, after color development
Protocol: (§1) • [1] Maximum Absorption Wavelength (λmax): The maximum absorption wavelength after color development, measured using a spectrophotometer (instantaneous multichannel photodetector MCPD3000) manufactured by Otsuka Electronics Co., Ltd. was used as an indicator for the color tone during the color development. • [2] 23°C Color Optical Density (A23): A difference between an absorbancy measured after light irradiation at 23°C for 240 seconds {ε(240)} and an absorbancy without light irradiation ε(0) at the maximum absorption wavelength was used as an indicator for the color optical density. […] 35°C Color Optical Density (A35): A difference between an absorbancy measured after light irradiation at 35°C for 240 seconds {ε(240)} and an absorbancy without light irradiation ε(0) at the first and second absorption wavelengths was used as an indicator for the color optical density. […] 23°C color fading half-life [τ1/2 (sec.)]: A time required for the absorbancy of the sample at the maximum absorption wavelength to decrease to 1/2 of {ε(240)-ε(0)} when the light irradiation is terminated after the light irradiation at 23°C for 240 seconds, was used as an indicator for the color fading speed. The shorter this time, the higher the color fading speed. • [6] Residual rate (A90/A0×100): The obtained photochromic plastic lens was subjected to accelerated deterioration using a xenon weather meter X25 manufactured by Suga Test Instruments Co., Ltd. for 90 hours. Subsequently, the color optical density was evaluated before and after the test, then a color optical density before the test (A0) and a color optical density after the test (A90) were measured, and a ratio (A90/A0) was defined as a residual rate. The residual rate was used as an indicator for a color developing durability. The higher the residual rate, the higher the color developing durability.

[2] = 23°C color optical density (A23): absorbancy difference ε(240)-ε(0) after 240 s light irradiation at 23°C; settings: 240 s irradiation; for 23°C color optical density (-): comparative compounds
Protocol: as §1

[3] = 35°C color optical density (A35): absorbancy difference ε(240)-ε(0) after 240 s light irradiation at 35°C; settings: 240 s irradiation; for 35°C color optical density (-): comparative compounds
Protocol: as §1

[4] = High-temperature color development rate (A35/A23×100), temperature dependency; settings: for Temperature change rate (%): comparative compounds, corresponds to A35/A23×100; for A35/A23 *100: photochromic laminate prepared by coating method
Protocol: as §1

[5] = Residual rate (A90/A0×100) after 90 h accelerated deterioration in xenon weather meter X25, color developing durability; settings: for Residual rate (%): xenon weather meter 90 hours; for Residual rate: photochromic laminate prepared by coating method, after 90 h accelerated deterioration
Protocol: as §1

[6] = photochromic laminate by coating method, absorption band at 449 nm
[7] = photochromic laminate by coating method, absorption band at 569 nm
[8] = photochromic laminate by coating method
[9] = binder sheet (binder method), urethaneurea resin photochromic layer between polycarbonate sheets, 0.25 mmol per 100 parts by mass resin
[10] = photochromic laminate by coating method, 40 µm photochromic layer on thiourethane lens, 0.25 mmol compound per 100 g monomers
[11] = photochromic laminate by coating method, at the maximum absorption wavelength
[12] = photochromic cured product by kneading method, 1 mm thick thiourethane, 0.106 mmol per 100 g monomers
[13] = cured product by kneading method, 1 mm
[14] = photochromic laminate by coating method, absorption band at 463 nm
[15] = photochromic laminate by coating method, absorption band at 573 nm

SMILES: COc1ccc(C2(c3ccc(OC)cc3)C=Cc3c4c(c5ccc(OC)cc5c3O2)-c2ccccc2C4(C)C)cc1 [Formula (D), reference compound]
Maximum absorption wavelength (nm) ([1]; photochromic laminate by coating method, 40 µm photochromic layer on thiourethane lens, 0.25 mmol compound per 100 g monomers, absorption band at 449 nm): 449 nm
Maximum absorption wavelength (nm) ([1]; photochromic laminate by coating method, 40 µm photochromic layer on thiourethane lens, 0.25 mmol compound per 100 g monomers, absorption band at 569 nm): 569 nm
Maximum absorption wavelength ([1]; absorption band at 449 nm): 449 nm
Maximum absorption wavelength ([1]; absorption band at 569 nm): 569 nm
23°C color optical density (-) [2, 6]: 0.69 -
23°C color optical density (-) [2, 7]: 0.87 -
35°C color optical density (-) [3, 6]: 0.44 -
35°C color optical density (-) [3, 7]: 0.55 -
Temperature change rate (%) [4, 8]: 63%
A35/A23 *100 ([4]; absorption band at 449 nm): 64%
A35/A23 *100 ([4]; absorption band at 569 nm): 63%
Residual rate (%) [5, 6]: 74%
Residual rate (%) [5, 7]: 73%
Residual rate ([5]; absorption band at 449 nm): 74%
Residual rate ([5]; absorption band at 569 nm): 73%

SMILES: CCCOc1ccc(C2(c3ccc(OC)cc3)C=Cc3c4c(c5cc(N(C)c6ccccc6)c(C)cc5c3O2)-c2ccc(C)cc2C4(CCCCOC)CCCCOC)cc1 (stereo not shown) [Example 17 Formula (79)]
Maximum absorption wavelength (nm) [1, 12]: 562 nm
Maximum absorption wavelength (nm) [1, 10]: 558 nm
A23 (-) [2, 13]: 1.09 -
A23 (-) [2, 11]: 1.06 -
A35 (-) [3, 13]: 0.75 -
A35 (-) [3, 8]: 0.71 -
A35/A23 *100 (%) [4, 13]: 69%
A35/A23 *100 (%) [4, 8]: 67%
Residual rate (%) [5, 13]: 84%
Residual rate (%) [5, 8]: 78%

SMILES: CCCCOc1ccc(C2(c3ccc(OC)cc3)C=Cc3c4c(c5cc(N(C)c6ccccc6)c(OC)cc5c3O2)-c2ccc(-c3ccc(C(C)(C)C)cc3)cc2C4(CC)CC)cc1 (stereo not shown) [Example 45 Formula (94)]
Maximum absorption wavelength (nm) [1, 9]: 506 nm
Maximum absorption wavelength (nm) [1, 10]: 506 nm
A23 (-) ([2]; binder sheet (binder method)): 1.24 -
A23 (-) [2, 11]: 1.21 -
A35 (-) ([3]; binder sheet (binder method)): 0.88 -
A35 (-) [3, 8]: 0.86 -
A35/A23 *100 (%) ([4]; binder sheet (binder method)): 71%
A35/A23 *100 (%) [4, 8]: 71%
Residual rate (%) ([5]; binder sheet (binder method)): 92%
Residual rate (%) [5, 8]: 80%

SMILES: COc1ccc(C2(c3ccc(OC)cc3)C=Cc3c4c(c5cc(N6CCc7ccccc7C6)c(OC)cc5c3O2)-c2ccccc2C4(C)C)cc1 [Formula (F), reference compound]
Maximum absorption wavelength (nm) [1, 9]: 481 nm
Maximum absorption wavelength (nm) [1, 10]: 481 nm
A23 (-) ([2]; binder sheet (binder method)): 1.85 -
23°C color optical density (-) [2, 8]: 1.81 -
A35 (-) ([3]; binder sheet (binder method)): 1.30 -
35°C color optical density (-) [3, 8]: 1.28 -
A35/A23 *100 (%) ([4]; binder sheet (binder method)): 70%
Temperature change rate (%) [4, 8]: 71%
Residual rate (%) ([5]; binder sheet (binder method)): 64%
Residual rate (%) [5, 8]: 50%

SMILES: CCCCOc1ccc(C2(c3ccc(OCCCC)cc3)C=Cc3c4c(c5cc(NC(=O)c6ccccc6)c(OC)cc5c3O2)-c2ccccc2C4(C)C)cc1 [Formula (B), reference compound]
Maximum absorption wavelength (nm) ([1]; photochromic laminate by coating method, 40 µm photochromic layer on thiourethane lens, 0.25 mmol compound per 100 g monomers, absorption band at 463 nm): 463 nm
Maximum absorption wavelength (nm) ([1]; photochromic laminate by coating method, 40 µm photochromic layer on thiourethane lens, 0.25 mmol compound per 100 g monomers, absorption band at 573 nm): 573 nm
23°C color optical density (-) [2, 14]: 1.30 -
23°C color optical density (-) [2, 15]: 0.90 -
35°C color optical density (-) [3, 14]: 0.88 -
35°C color optical density (-) [3, 15]: 0.62 -
Temperature change rate (%) [4, 8]: 68%
Residual rate (%) [5, 8]: 68%

SMILES: COc1ccc(C2(c3ccc(N4CCOCC4)cc3)C=Cc3c4c(c5cc(N6CCCc7ccccc76)c(OC)cc5c3O2)-c2ccc(C)cc2C4(CCCC(F)(F)F)CCCC(F)(F)F)cc1 (stereo not shown) [Example 8 Formula (54)]
Maximum absorption wavelength (nm) [1, 12]: 549 nm
Maximum absorption wavelength (nm) [1, 10]: 545 nm
A23 (-) [2, 13]: 1.20 -
A23 (-) [2, 11]: 1.18 -
A35 (-) [3, 13]: 0.79 -
A35 (-) [3, 8]: 0.75 -
A35/A23 *100 (%) [4, 13]: 66%
A35/A23 *100 (%) [4, 8]: 64%
Residual rate (%) [5, 13]: 80%
Residual rate (%) [5, 8]: 75%

SMILES: CCCCCCCCC1(CCCCCCCC)c2cc([Si](c3ccccc3)(c3ccccc3)c3ccccc3)ccc2-c2c1c1c(c3cc(OC)c(N(c4ccccc4)c4ccccc4)cc23)OC(c2ccc(OCCC)cc2)(c2ccc(OCCC)cc2)C=C1 [Example 56 Formula (128)]
Maximum absorption wavelength (nm) [1, 10]: 508 nm
A23 (-) [2, 11]: 1.80 -
A35 (-) [3, 8]: 1.24 -
A35/A23 *100 (%) [4, 8]: 69%
Residual rate (%) [5, 8]: 81%

Further lines, results first:

Maximum absorption wavelength (nm) [1, 9]: 501 nm
Maximum absorption wavelength (nm) [1, 10]: 501 nm
A23 (-) ([2]; binder sheet (binder method)): 1.40 -
A23 (-) [2, 11]: 1.38 -
A35 (-) ([3]; binder sheet (binder method)): 0.93 -
A35 (-) [3, 8]: 0.92 -
A35/A23 *100 (%) ([4]; binder sheet (binder method)): 67%
A35/A23 *100 (%) [4, 8]: 67%
Residual rate (%) ([5]; binder sheet (binder method)): 94%
Residual rate (%) [5, 8]: 81%
SMILES: CCCCC1(CCCC)c2ccccc2-c2c1c1c(c3cc(OC)c(N(c4ccc(F)cc4)c4ccc(F)cc4)cc23)OC(c2ccc(OC)cc2)(c2ccc(OC)cc2)C=C1 [Example 12 Formula (66)]

Maximum absorption wavelength (nm) [1, 9]: 496 nm
Maximum absorption wavelength (nm) [1, 12]: 500 nm
Maximum absorption wavelength (nm) [1, 10]: 496 nm
A23 (-) ([2]; binder sheet (binder method)): 1.20 -
A23 (-) [2, 13]: 1.20 -
A23 (-) [2, 11]: 1.18 -
A35 (-) ([3]; binder sheet (binder method)): 0.79 -
A35 (-) [3, 13]: 0.81 -
A35 (-) [3, 8]: 0.78 -
A35/A23 *100 (%) ([4]; binder sheet (binder method)): 66%
A35/A23 *100 (%) [4, 13]: 67%
A35/A23 *100 (%) [4, 8]: 66%
Residual rate (%) ([5]; binder sheet (binder method)): 93%
Residual rate (%) [5, 13]: 84%
Residual rate (%) [5, 8]: 80%
SMILES: COc1ccc(C2(c3ccc(OC)cc3)C=Cc3c4c(c5cc(N(C)c6ccc(F)cc6)c(OC)cc5c3O2)-c2ccccc2C4(C)C)cc1 [Example 4 Formula (34)]

Maximum absorption wavelength (nm) [1, 9]: 521 nm
Maximum absorption wavelength (nm) [1, 10]: 521 nm
A23 (-) ([2]; binder sheet (binder method)): 1.93
A23 (-) [2, 11]: 1.89 -
A35 (-) ([3]; binder sheet (binder method)): 1.36 -
A35 (-) [3, 8]: 1.33 -
A35/A23 *100 (%) ([4]; binder sheet (binder method)): 70%
A35/A23 *100 (%) [4, 8]: 70%
Residual rate (%) ([5]; binder sheet (binder method)): 94%
Residual rate (%) [5, 8]: 82%
SMILES: CCCOc1ccc(C2(c3ccc(OCCC)cc3)C=Cc3c4c(c5cc(N(c6ccc(C)cc6)c6ccc(C)cc6)c(OC)cc5c3O2)-c2ccccc2C4(CCCCOCOC)CCCCOCOC)cc1 [Example 14 Formula (71)]
